Reference: patent publication US8163709B2, “TAK1-D mediated induction of cell death in human cancer cells by specific sequence short double-stranded RNAS” (Board of Regents of the University of Texas System, priority 2008, dated 2012)
“Also recorded” adds a separate entry of the source. d = 2'-deoxy (DNA); r = 2'-OH (RNA)

Legend:
p38 MAP kinase pathway = assay: Activation of the p38 MAP kinase pathway in H460 cells (Western blot); assay type: cell-based, human
Description: Both siRNAs were directed against the mRNA of the same gene TLK1.

SAPK/JNK pathway = assay: Activation of the SAPK/JNK pathway in H460 cells (Western blot); assay type: cell-based, human; details: H460, ribotoxins 90 minutes (same concentrations)
TAK1-D = biological target: T1, TAK1-D (Homo sapiens, UniProt O43318); assay: TAK1-D autophosphorylation on T184/T187 in H460 cells (Western blot, phospho-specific antibody); assay type: cell-based; set-up: endogenous in cells; host or cells: NCI-H460; details: for activating autophosphorylation of TAK1-D on T184 and T187: H460, ribotoxins 90 minutes (same concentrations); for activating autophosphorylation (activation) of TAK1-D on T184 and T187: RNA transfected (20 nM), Western blot
T1 sequence (O43318 1-491 isoform O43318-4): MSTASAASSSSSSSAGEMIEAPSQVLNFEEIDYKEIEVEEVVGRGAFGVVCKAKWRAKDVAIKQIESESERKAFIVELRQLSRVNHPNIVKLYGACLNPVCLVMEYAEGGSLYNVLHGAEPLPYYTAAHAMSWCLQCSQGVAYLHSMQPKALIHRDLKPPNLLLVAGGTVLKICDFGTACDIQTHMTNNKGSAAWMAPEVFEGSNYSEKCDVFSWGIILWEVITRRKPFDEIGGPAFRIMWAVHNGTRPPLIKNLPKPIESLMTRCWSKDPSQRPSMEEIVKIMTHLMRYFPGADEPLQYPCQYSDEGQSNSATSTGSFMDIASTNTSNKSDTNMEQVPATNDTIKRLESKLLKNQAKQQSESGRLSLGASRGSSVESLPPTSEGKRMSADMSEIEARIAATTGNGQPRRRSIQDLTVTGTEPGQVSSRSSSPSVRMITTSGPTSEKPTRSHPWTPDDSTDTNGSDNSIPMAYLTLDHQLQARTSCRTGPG
Procedure: In an effort to identify the MAPKKK responsible for the activation of the p38 MAP kinase and SAPK/JNK pathway, several of these kinases were screened for siRNA si5 mediated activation.
Immunoblot analysis. Western blotting was performed exactly as described previously (Kodym et al., 2008b). In addition to the primary antibodies previously mentioned (Kodym et al., 2008b) the following antibodies were used: S6 ribosomal protein (Cell Signaling #2217), DPM1 (Santa Cruz #sc-15836, Santa Cruz, Calif., USA), and Histone H3 (Cell Signaling #9715).

NF-κB = NF-κB activation in H460 cells (EMSA, IKKα/β phosphorylation); assay type: cell-based, human; details: 10 ng/ml, 30 min, listed as IL1β
Procedure: EMSA. Electrophoretic mobility shift assays for NFκB were performed as described previously (Kurland et al., 2001) using 3.5 μg of nuclear protein for each reaction.
FIG. 16B illustrates the effect of dominant-negative TAK1-D/K63W on dsRNA si5 induced cell death. […] As a slight growth inhibition of si5 transfected H460-K63W cells can be observed in FIG. 16B it is interesting to ask whether this is caused by an incomplete suppression of TAK1-D activity or by activation of other dsRNA-dependent stress pathways. To answer this question, the activation of the transcription factor NF-κB by dsRNA si5 was tested, as it well established that dsRNA triggered activation of PKR (Zamanian-Daryoush et al., 2000), TLR3 (Jiang et al., 2003), and RIG1/Mda-5 (Hiscott et al., 2006) leads to a downstream activation of NF-κB.

TAK1-A = assay: Autophosphorylation of the other (long) Tak1 splicing variants in H460 cells; assay type: cell-based, human; details: 10 ng/ml, 30 min
Description: In contrast only the long form (TAK1-A) is able to activate the NFκB pathway through phosphorylation of IKKα/β.

TLK1 = TLK1 post-transcriptional silencing in HeLa cells (Western blot); assay type: cell-based, human; details: 48 h after transfection
Procedure: In order to test whether dsRNA molecules show the same cellular uptake and stability the efficiency of these molecules to post-transcriptionally silence the expression of TLK1 was determined as si6 as well as si5 siRNA are directed against the mRNA of this protein. […] As a loading control the unchanged expression levels of TAK1-A/B and 3-tubulin are shown in the two lower panels.

H460 cells = assay: Survival assay of H460 cells, Crystal Violet staining

CN(CC[C@H](N)CC(=O)N[C@H]1C=C[C@H](n2ccc(N)nc2=O)O[C@@H]1C(=O)O)C(=N)N [Blasticidin S]
activating phosphorylations of p38 MAP kinase and its upstream kinases MKK3/6 (p38 MAP kinase pathway): induced activating phosphorylations; also recorded: induce an activation of p38 MAP kinase and SAPK/JNK | activating phosphorylations of SAPK/JNK and its upstream kinase MKK4 (SAPK/JNK pathway): induced activating phosphorylations | activating phosphorylations of SAPK/JNK and its upstream kinase MKK4 (SAPK/JNK pathway; listed as blasticidin S): induce an activation of p38 MAP kinase and SAPK/JNK | activating autophosphorylation of TAK1-D on T184 and T187 (TAK1-D): No such activation was detectable

C[C@@H]1C[C@@H]([C@H](O)CC2CC(=O)NC(=O)C2)C(=O)[C@@H](C)C1 [Cycloheximide]
activating phosphorylations of p38 MAP kinase and its upstream kinases MKK3/6 (p38 MAP kinase pathway): induced activating phosphorylations; also recorded: induce an activation of p38 MAP kinase and SAPK/JNK | activating phosphorylations of SAPK/JNK and its upstream kinase MKK4 (SAPK/JNK pathway): induced activating phosphorylations | activating phosphorylations of SAPK/JNK and its upstream kinase MKK4 (SAPK/JNK pathway; listed as cycloheximide): induce an activation of p38 MAP kinase and SAPK/JNK | activating autophosphorylation of TAK1-D on T184 and T187 (TAK1-D): No such activation was detectable

CN[C@@H]1[C@@H](O)[C@@H](O[C@@H]2[C@@H](O)[C@H](O[C@H]3O[C@H]([C@@H](C)O)[C@@H](O)[C@H](O)[C@H]3N)[C@@H](N)C[C@H]2N)OC[C@]1(C)O [G418]
activating phosphorylations of p38 MAP kinase and its upstream kinases MKK3/6 (p38 MAP kinase pathway): exception | activating phosphorylations of SAPK/JNK and its upstream kinase MKK4 (SAPK/JNK pathway): exception

COc1ccc(C[C@H](N)C(=O)N[C@H]2[C@@H](O)[C@H](n3cnc4c(N(C)C)ncnc43)O[C@@H]2CO)cc1 [Puromycin, reference compound]
activating phosphorylations of p38 MAP kinase and its upstream kinases MKK3/6 (p38 MAP kinase pathway): induced activating phosphorylations | activating phosphorylations of SAPK/JNK and its upstream kinase MKK4 (SAPK/JNK pathway): induced activating phosphorylations | activating autophosphorylation of TAK1-D on T184 and T187 (TAK1-D): led to an activating autophosphorylation of TAK1-D | activating autophosphorylation of TAK1-D on T184 and T187 (TAK1-D; listed as puromycin): induce an activating TAK1-D phosphorylation

AU: dsRNA with alternating A and U bases (control, SEQ ID NO:21 and 22) (chain 1 AUAUAUAUAUAUAUAUAUATT; chain 2 TTUAUAUAUAUAUAUAUAUAU; chemistry not given here) [reference compound]
activating autophosphorylation (activation) of TAK1-D on T184 and T187 (TAK1-D; H460 cells): does not activate the TAK1-D pathway

IL1: interleukin 1, positive control activating the long TAK1 variant via IL-1 receptor
activation of the p38 MAP kinase pathway (MKK3/6) (p38 MAP kinase pathway; H460 cells, 10 ng/ml IL1): activating the p38 MAP kinase pathway (MKK3/6) | activation of TAK1-D (TAK1-D; H460 cells, 10 ng/ml IL-1): does not activate TAK1-D | activation of the NFκB cascade (IKKα/β phosphorylation) (NF-κB): activates the NFκB pathway | autophosphorylation of the long splicing variant of Tak1 (TAK1-A): autophosphorylation of the large splicing variant of Tak1 (A and B) | autophosphorylation of the long splicing variant of Tak1 (TAK1-A; listed as IL1β): activates exclusively the long form of TAK1 (TAK1-A)

OmeD: si5 sequence with 2′-O-methyl on both strands (SEQ ID NO:23 and 24) (chain 1 GGCUUUUGACCUUUAUGAAUU; chain 2 UUCCGAAAACUGGAAAUACUU; siRNA; 2'-O-methyl at dot-marked bases on both strands, pattern not given here; one strand is listed 3' to 5')
activating autophosphorylation (activation) of TAK1-D on T184 and T187 (TAK1-D; H460 cells): no activation of Tak1-D could be detected | expression level of TLK1 (TLK1): very significant reduction in the expression of TLK1

OmeS: si5 sequence with several bases of the sense strand 2′-O-methyl modified (SEQ ID NO:25 and 26) (chain 1 GGCUUUUGACCUUUAUGAAUU; chain 2 TTCCGAAAACUGGAAAUACUU; 2'-O-methyl on sense strand bases, chemistry not fully specified; one strand is listed 3' to 5')
expression level of TLK1 (TLK1): very significant reduction in the expression of TLK1

shRNA: short hairpin RNA containing the si5 sequence, in vitro transcribed with T7 RNA polymerase (SEQ ID NO:20) (GGCUUUUGACCUUUAUGAAUUAAUUCAUAAAGGUCAAAAGCC; siRNA; RNA, phosphodiester; hairpin)
cell death, crystal violet (H460 cells; H460, 48 hours after transfection, shRNA experiment): led to cell death

si5OMeA: si5 sequence with U and G 2′-O-methylated in the antisense strand only (SEQ ID NO:27 and 28) (chain 1 GGCUUUUGACCUUUAUGAATT; chain 2 UUCCGAAAACUGGAAAUACUU; 2'-O-methyl U and G in antisense strand, chemistry not fully specified; one strand is listed 3' to 5')
expression level of TLK1 (TLK1): very significant reduction in the expression of TLK1

si5d: si5 with one U of the homopolymeric stretch changed to a C (SEQ ID NO:19) (GGCUUCUGACCUUUAUGAATT; siRNA; sugars from the 5' end r19 d2, backbone not given here)
activating autophosphorylation (activation) of TAK1-D on T184 and T187 (TAK1-D; H460 cells): significantly reduced the capacity of the molecule to activate TAK1-D | expression level of TLK1 (TLK1): very significant reduction in the expression of TLK1

si5l: si5 extended by adding 2 ribonucleotides (SEQ ID NO:18) (GGCUUUUGACCUGUUUAUGAATT; siRNA; sugars from the 5' end r21 d2, backbone not given here)
activation of the p38 MAP kinase pathway (phosphorylation of MKK3/6, p38 MAPK) (p38 MAP kinase pathway; H460 cells, 20 nM RNA, 2-6 h): small activation of Tak1-D and p38 MAPK could still be observed | activating autophosphorylation (activation) of TAK1-D on T184 and T187 (TAK1-D; H460 cells): significantly reduced its activity | expression level of TLK1 (TLK1): lack of post-transcriptional silencing of TLK1

si5s: si5 with two ribonucleotides in the middle of the molecule deleted (SEQ ID NO:17) (GGCUUUUGACUUAUGAATT; siRNA; sugars from the 5' end r17 d2, backbone not given here)
activating autophosphorylation (activation) of TAK1-D on T184 and T187 (TAK1-D; H460 cells): completely abolished its ability to activate Tak1-D | expression level of TLK1 (TLK1): lack of post-transcriptional silencing of TLK1

si6: control 21-mer siRNA against TLK1 mRNA: GGGUGGAAAUGGCUCAAGUtt (SEQ ID NO: 4) / gtCCCACCUUUACCGAGUUCA (SEQ ID NO: 5) (sense GGGUGGAAAUGGCUCAAGUTT; antisense GTCCCACCUUUACCGAGUUCA; Artificial primer) [reference compound]
cytotoxicity, Crystal Violet (H460 cells; H460, concentration range tested (up to 20 nM), 48 h): does not show any significant cytotoxicity
